Each structure is given as a SMILES string. Entries after “also recorded” stand apart in the source; their conditions may differ. Like-named read-outs stand apart in the source and are kept apart here.

The values that follow come from patent publication US20130231292A1, “Synergistic anti-proliferation activity of TAS-108 with mTOR inhibitors against cancer cells” (priority 2012, published 2013).

One test relates to MCF7. Kind of test: CellTiter-Glo cell viability assay, single agents, three days. It is filed as cell-based. As to conditions: Homo sapiens; for Emax: read-out: Max Inhibition.
The test system of test [1] is 60 cancer cell lines of different tissues of origin. Kind of test: Non-bias 5x4 checkerboard combination screen of TAS108 with 30 chemotherapeutic agents. Type of test: cell-based. Further details: ES: synergistic effect size: scale not given here. As to conditions: for ES: synergistic effect size: in combination with TAS-108, meta analysis across doses and 60 cell lines; for synergy with TAS-108 across the cell line panel (in words): in combination with TAS-108. An excerpt:
We used 5×4 factorial (checkerboard) design. The combinations were screened against 60 cancer cell lines of different tissues of origin, including melanoma, ovarian, CNS, renal, lung, breast, colon, prostate, and leukemia cancers, represented by cell lines including LOXIMVI, M14,MDAMB468, HT29, NCIH522, HS578T, RPMI8226, HOP92, HL60, OVCAR8, SR, SKMEL2, PC3, HOP62, HCC2998,786O, U251, OVCAR3, NCIH23, T47D, SF295, MOLT4, HCT15, SF539, BT549, SN12C, KM12, ADRRES, A498, NCIH226, NCIH322M, OVCAR5, MALME, OVCAR4, RXF393, SW620, CCRFCEM, UACC62, ACHN, SKOV3, SF268, EKVX, A549, NCIH460, IGROV1, SNB75, UACC257, UO31, HCT116, TK10, K562, SKMEL28, COLO205, SNB19, MDAMB231, DU145, CAKI1, MDAMB435, and MCF7.
After quantifying the degree of synergy for specified doses of compounds within each individual cell line, we used meta analysis to aggregate those effects across doses and the cell line panel (Table 1).

In the next test the test system is MDAMB231. Kind of test: CellTiter-Glo cell viability assay, single agents, three days. Type of test: cell-based. The conditions noted are these: Homo sapiens, MDA-MB-231, 72 h; for GI50: MDAMB231, three days, CellTiter-Glo; for Emax: read-out: Max Inhibition.
Another test deals with BT549. Described as above. Type of test: cell-based. The conditions noted are these: Homo sapiens, BT-549, 72 h; for Emax: read-out: Max Inhibition; for GI50: BT549, three days, CellTiter-Glo.
The subject of another test is MDAMB468. The description is as above. It is filed as cell-based. The conditions noted are these: Homo sapiens, MDA-MB-468, 72 h; for Emax: read-out: Max Inhibition; for GI50: MDAMB468, three days, CellTiter-Glo.
Another test relates to HS578T. Described as above. Type of test: cell-based. As to conditions: Homo sapiens, Hs-578T, 72 h; for Emax: read-out: Max Inhibition.
The subject of the next test is T47D. The test is described as above. It is filed as cell-based. As to conditions: Homo sapiens, 72 h; for Emax: read-out: Max Inhibition.
For the next test, the system named is HS 578T. Kind of test: Combination screen of TAS-108 with a second compound, CellTiter-Glo. As to conditions: in combination with TAS-108.
Test [2] deals with human mammary carcinoma cell lines. Kind of test: Combination screen of TAS-108 with a second compound, all six breast lines. As to conditions: number of the six breast cell lines with synergy, in combination with TAS-108.
Procedure: (§1) Cells were treated with compounds alone or in combination for three days and CellTiter-Glo® Luminescent Cell Viability Assay (Promega Corp.) was used as the endpoint to measure cell viability.
(§2) Cells were cultured in RPMI with 10% fetal bovine serum and used between passage 2 and passage 20.
(§3) Other compounds used were purchased from commercial sources (Sigma, AK Scientific). 40 mM Compound stocks in 100% DMSO were made. Master plates were made with Janus (PerkinElmer), then further diluted and added to the cell plates with Matrix Platemate (Thermo) on Day 0.
(§4) CellTiter-Glo® Luminescent Cell Viability Assay (Promega Corp.) was used to measure ATP as an indicator of viable cells on Day 3 using Envision (PerkinElmer) and back up plate reader Analyst HT (MDS) and Gen5 (BioTek).
(§5) Relative Luminescent Units (RLU) were plotted against corresponding drug concentrations and fitted with a standard four parameter sigmoidal curve with custom coded R program. Percentage growth inhibition is calculated as: [(Ti−Tz)/(C−Tz)]×100 for concentrations for which Ti≧Tz and [(Ti−Tz)/Tz]×100 for concentrations for which Ti<Tz.
(§6) Twenty-five doses were tested for each pair of combinations.
(§7) N: no synergistic effect; Y: synergistic effect; y: weak synergistic effect.
Setting [3] is: 72 h, MCF7, highest dose tested.
The mark [4] stands for this setting: 72 h, MCF7, three days, CellTiter-Glo, read-out: GI50.
Where [5] appears, read: HS578T, three days, CellTiter-Glo, read-out: GI50.
[6] abbreviates: three days, CellTiter-Glo, read-out: GI50.

Procedure for HS 578T: as §1, §2, §3, §4, §5, §6, §7

For the compound `O=C(c1ccc(OCCN2CCCCC2)cc1)c1c(-c2ccc(O)cc2)sc2cc(O)ccc12` [Raloxifene], the Emax in the test with MCF7 (setting [3]) came to 27%. The 50% growth inhibitory concentration (GI50) in the test on MCF7 (setting [4]) is 25 µM.

For `CCc1c2c(nc3ccc(O)cc13)-c1cc3c(c(=O)n1C2)COC(=O)[C@]3(O)CC` [SN38], the “ES: synergistic effect size” value in [1] is given as 0.022.

Consider `Cc1cn(-c2cc(NC(=O)c3ccc(C)c(Nc4nccc(-c5cccnc5)n4)c3)cc(C(F)(F)F)c2)cn1` [Nilotinib], for which the GI50 with MDAMB231 turned out to be 14 µM.

Take `CO[C@H]1C[C@@H]2CC[C@@H](C)[C@@](O)(O2)C(=O)C(=O)N2CCCC[C@H]2C(=O)O[C@H]([C@H](C)C[C@@H]2CC[C@@H](O)[C@H](OC)C2)CC(=O)[C@H](C)/C=C(\C)[C@@H](O)[C@@H](OC)C(=O)[C@H](C)C[C@H](C)/C=C/C=C/C=C/1C` [Rapamycin]: the Emax in the test on BT549 (BT549, highest dose tested) was 99%; with MDAMB468 (MDAMB468, highest dose tested) it was 100%; in the test on HS578T (HS578T, highest dose tested), 41%; in the test on MDAMB231 (MDAMB231, highest dose tested), 95%; in the test on MCF7 (setting [3]) it was 55%; in the test with T47D (highest dose tested), 45%. Also, the 50% growth inhibitory concentration (GI50) came out at 0.22 µM in the test with BT549; 0.063 µM in the test on MDAMB468; 1 µM with HS578T (setting [5]); 11 µM in the test on MDAMB231; 0.054 µM with MCF7 (setting [4]); 0.047 µM with T47D (setting [6]).

For the compound `CO[C@H]1C[C@@H]2CC[C@@H](C)[C@@](O)(O2)C(=O)C(=O)N2CCCC[C@H]2C(=O)O[C@H]([C@H](C)C[C@@H]2CC[C@@H](OCCO)[C@H](OC)C2)CC(=O)[C@H](C)/C=C(\C)[C@@H](O)[C@@H](OC)C(=O)[C@H](C)C[C@H](C)/C=C/C=C/C=C/1C` [Everolimus], the “Synergistic effect of TAS 108 paired with compound” value in the test with HS 578T is recorded as “Y”. The Emax with BT549 (BT549, highest dose tested) worked out at 100%; in the test with MDAMB468 (MDAMB468, highest dose tested) it was 100%; in the test with HS578T (HS578T, highest dose tested), 41%; with MDAMB231 (MDAMB231, highest dose tested), 40%; in the test with MCF7 (setting [3]), 43%; in the test with T47D (highest dose tested) it was 49%. In addition, the GI50 in the test on BT549 came to 5.8 µM; in the test with MDAMB468, 0.063 µM; with HS578T (setting [5]), 0.063 µM; with MDAMB231, 54 µM; in the test with MCF7 (setting [4]), 0.17 µM; with T47D (setting [6]), 0.052 µM. In [2], the “Synergy #” value is on record as 6. Further, the “synergy with TAS-108 across the cell line panel (in words)” value in [1] is recorded as “synergy was consistently found; also recorded: significant synergy”. In [1], the “ES: synergistic effect size” value was found to be 0.037.

For the compound `O=C(CCCCCCC(=O)Nc1ccccc1)NO` [Vorinostat], the “ES: synergistic effect size” value in test [1] was found to be 0.004.

Turning to `CCN(CC)CCNC(=O)c1c(C)[nH]c(/C=C2\C(=O)Nc3ccc(F)cc32)c1C` [Sunitinib], the Emax in the test on BT549 (BT549, highest dose tested) came out at 100%; in the test on HS578T (HS578T, highest dose tested) it was 65%; with MDAMB231 (MDAMB231, highest dose tested), 99%. Moreover, the 50% growth inhibitory concentration (GI50) in the test on BT549 was determined as 4.2 µM; in the test with MDAMB468, 21 µM; in the test on HS578T (setting [5]), 6.9 µM; with MDAMB231 it was 5.6 µM.

With `CCCCCOC(=O)Nc1nc(=O)n([C@@H]2O[C@H](C)[C@@H](O)[C@H]2O)cc1F` [Capecitabine], the “ES: synergistic effect size” value in test [1] is reported as −0.001.

`Cc1nc(Nc2ncc(C(=O)Nc3c(C)cccc3Cl)s2)cc(N2CCN(CCO)CC2)n1` [Dasatinib]: the Emax was determined as 51% with BT549 (BT549, highest dose tested); 40% with MDAMB468 (MDAMB468, highest dose tested); 79% in the test on HS578T (HS578T, highest dose tested); 82% in the test with MDAMB231 (MDAMB231, highest dose tested); 37% with T47D (highest dose tested). The GI50 came out at 0.058 µM in the test with BT549; 16 µM with MDAMB468; 0.015 µM with HS578T (setting [5]); 0.0099 µM with MDAMB231; 0.86 µM in the test with T47D (setting [6]).

For the compound `CC[C@]1(O)C[C@H]2CN(CCc3c([nH]c4ccccc34)[C@@](C(=O)OC)(c3cc4c(cc3OC)N(C=O)[C@H]3[C@@](O)(C(=O)OC)[C@H](OC(C)=O)[C@]5(CC)C=CCN6CC[C@]43[C@@H]65)C2)C1` [Vincristine], the “ES: synergistic effect size” value in test [1] is 0.023.

`Nc1ccn([C@@H]2O[C@H](CO)[C@@H](O)C2(F)F)c(=O)n1` [Gemcitabine]: the “ES: synergistic effect size” value in [1] is −0.007.

Turning to `Nc1nc(F)nc2c1ncn2[C@@H]1O[C@H](CO)[C@@H](O)[C@@H]1O` [FluroaraA], the “ES: synergistic effect size” value in [1] is 0.008.

As to `Nc1ccn([C@@H]2O[C@H](CO)[C@@H](O)[C@@H]2O)c(=O)n1` [Cytarabine], the “ES: synergistic effect size” value in [1] is listed as −0.008.

`N.N.O=C([O-])C1(C(=O)[O-])CCC1.[Pt+2]` [Carboplatin]: the “ES: synergistic effect size” value in test [1] is −0.004.

In the case of `Cc1ccc(NC(=O)c2ccc(CN3CCN(C)CC3)cc2)cc1Nc1nccc(-c2cccnc2)n1` [Imatinib], the figures for the concentration for 50% growth inhibition (GI50) in the test on BT549 and with MDAMB231 were 29 µM and 26 µM, respectively. The Emax with MDAMB231 (MDAMB231, highest dose tested) stood at 91%.

For `C#Cc1cccc(Nc2ncnc3cc(OCCOC)c(OCCOC)cc23)c1` [Erlotinib], the Emax with MDAMB468 (MDAMB468, highest dose tested) was determined as 34%. Moreover, the 50% growth inhibitory concentration (GI50) with MDAMB468 was 76 µM.

`O=c1[nH]c(=O)n([C@H]2C[C@H](O)[C@@H](CO)O2)cc1F` [Floxuridine]: the “ES: synergistic effect size” value in test [1] is on record as −0.016.

For the compound `CS(=O)(=O)CCNCc1ccc(-c2ccc3ncnc(Nc4ccc(OCc5cccc(F)c5)c(Cl)c4)c3c2)o1` [Lapatinib], the Emax with MDAMB468 (MDAMB468, highest dose tested) was 99%; with MDAMB231 (MDAMB231, highest dose tested), 98%; in the test with T47D (highest dose tested), 31%. For the same compound, the concentration for 50% growth inhibition (GI50) turned out to be 1.9 µM in the test on MDAMB468, 14 µM in the test with MDAMB231 and 5.8 µM in the test with T47D (setting [6]).

Regarding `CC(=O)O[C@@]12CO[C@@H]1C[C@H](O)[C@@]1(C)C(=O)[C@H](O)C3=C(C)[C@@H](OC(=O)[C@H](O)[C@@H](NC(=O)OC(C)(C)C)c4ccccc4)C[C@@](O)([C@@H](OC(=O)c4ccccc4)[C@H]21)C3(C)C` [Docetaxel], in [1], the “synergy with TAS-108 across the cell line panel (in words)” value is given as “synergy was consistently found; also recorded: significant synergy” and the “ES: synergistic effect size” value is recorded as 0.23.

Regarding `C/C=C1\NC(=O)[C@H]2CSSCC/C=C/[C@H](CC(=O)N[C@H](C(C)C)C(=O)N2)OC(=O)[C@H](C(C)C)NC1=O` [Romidepsin], the Emax was determined as 99.8% with BT549; 99.8% in the test on MDAMB468; 99.6% with HS578T; 99.9% in the test with MDAMB231; 94% with MCF7 (MCF7, 72 h); 96.7% in the test with T47D. Besides, the GI50 was 0.0003 µM in the test on HS578T; 0.00044 µM with MCF7 (MCF7, 72 h); 0.0011 µM in the test on T47D.

For the compound `C[C@]12CC[C@@H]3c4ccc(O)cc4C[C@@H](CCCCCCCCC[S+]([O-])CCCC(F)(F)C(F)(F)F)[C@H]3[C@@H]1CC[C@@H]2O` (stereo partly shown) [Faslodex], the Emax in the test with MCF7 (setting [3]) was 30%; in the test on T47D (highest dose tested) it was 24%. The GI50 in the test on MCF7 (setting [4]) came out at 1 µM.
